# Measured values published in the supplement of paper PMC10307832.
# What was measured:
# Assay in all cases: relative viability (nuclei count vs DMSO), 5 days (fraction); higher = more cells survive
# Masitinib + Vorinostat = compound: Cc1ccc(NC(=O)c2ccc(CN3CCN(C)CC3)cc2)cc1Nc1nc(-c2cccnc2)cs1 [Masitinib] + O=C(CCCCCCC(=O)Nc1ccccc1)NO [Vorinostat] (partner 1 µM)
# Method in brief: (§1)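 Medians of duplicate plates are given as relative viability. That measure is the nuclei count in treated wells divided by the count in vehicle wells. Counts were taken on 4× images of lung cancer cell lines in 1536-well plates, 5 days after pin-tool dosing the day after seeding with one drug alone or a fixed anchor-drug dose plus five library-drug doses (not always all listed) in √10 steps.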
# [1] = compound: CC1=CC(=CC=C1)NC2=NC(=CS2)C3=CC=NC=C3 + Nc1ncn([C@H]2C[C@H](O)[C@@H](CO)O2)c(=O)n1 [Decitabine] (partner 2 µM)
# Method in brief: as §1
# Masitinib + Olaparib = compound: Cc1ccc(NC(=O)c2ccc(CN3CCN(C)CC3)cc2)cc1Nc1nc(-c2cccnc2)cs1 [Masitinib] + O=C(c1cc(Cc2n[nH]c(=O)c3ccccc23)ccc1F)N1CCN(C(=O)C2CC2)CC1 [Olaparib] (partner 8 µM)
# Method in brief: as §1
# Masitinib + Linsitinib = compound: Cc1ccc(NC(=O)c2ccc(CN3CCN(C)CC3)cc2)cc1Nc1nc(-c2cccnc2)cs1 [Masitinib] + C[C@]1(O)C[C@@H](c2nc(-c3ccc4ccc(-c5ccccc5)nc4c3)c3c(N)nccn32)C1 [Linsitinib] (partner 1 µM)
# Method in brief: as §1
cell line,measurement,setting,value
UMC-11,relative viability,Masitinib + Vorinostat; first compound 0.01 µM,0.314
same,relative viability,Masitinib + Vorinostat; first compound 0.03162 µM,0.342
same,relative viability,Masitinib + Vorinostat; first compound 0.1 µM,0.375
same,relative viability,Masitinib + Vorinostat; first compound 0.3162 µM,0.366
same,relative viability,Masitinib + Vorinostat; first compound 1 µM,0.359
same,relative viability,[1]; first compound 0.08 µM,0.56
same,relative viability,[1]; first compound 0.253 µM,0.552
same,relative viability,[1]; first compound 0.8 µM,0.572
same,relative viability,[1]; first compound 2.53 µM,0.626
same,relative viability,[1]; first compound 8 µM,0.714
same,relative viability,Masitinib + Olaparib; first compound 0.01 µM,0.354
same,relative viability,Masitinib + Olaparib; first compound 0.03162 µM,0.371
same,relative viability,Masitinib + Olaparib; first compound 0.1 µM,0.372
same,relative viability,Masitinib + Olaparib; first compound 0.3162 µM,0.376
same,relative viability,Masitinib + Olaparib; first compound 1 µM,0.398
same,relative viability,Masitinib + Linsitinib; first compound 0.01 µM,0.982
same,relative viability,Masitinib + Linsitinib; first compound 0.03162 µM,1.12
same,relative viability,Masitinib + Linsitinib; first compound 0.1 µM,1.27
same,relative viability,Masitinib + Linsitinib; first compound 0.3162 µM,1.07
same,relative viability,Masitinib + Linsitinib; first compound 1 µM,1.25
